Experimental data published in patent US20150335558A1, “NERVE GROWTH INHIBITOR, CUTANEOUS-SENSORY-IRRITATION INHIBITOR, AND MARKER FOR CUTANEOUS-SENSORY-IRRITATION DETECTION” (HOYU CO., LTD., priority 2012, published 2015).

Assays:
ICR mice = assay: Scratch bouts of ICR mice after 10% SDS application (Sample Experiment 1-1); type: in vivo, mouse; details: ICR mice, 10% SDS aqueous solution 50 μL single application to rostral back, Day 0 to Day 4, vs untreated and solvent control
Method: The present Sample Experiment was conducted using ICR mice, and an anionic surfactant, namely, sodium dodecyl sulfate (SDS), was used as a stimulating substance to analyze the scratch bouts of mice. After SDS had been applied, terfenadine (TRF) was administered as an antihistamine to determine its effect on scratch bouts.
Male ICR mice at ages of 7 to 8 weeks, purchased from Japan SLC, were used. The mice were given solid feed under free water supply and subjected to preliminary rearing for 7 days or longer under a constant temperature/constant humidity environment with a temperature of 22±2° C., and a humidity of 55±10% before they were used in the test. The mice for use were used in the test at least 3 days after shearing/depilating the rostral back of each mouse. […]
The scratch bouts of mice were performed in view of the Kuraishi et al. report. That is, a single mouse was put in each chamber of the 4 divided sections in an acrylic box (13×9×35 cm) to be acclimated for at least an hour, and they were video recorded in an environment without any person for at least an hour a day from the day of applying the above 10% SDS aqueous solution (Day 0) to the 4th day after application (Day 4) to record their movement. Then, by watching the video, the number of scratch bouts against the rostral back by the hind leg was counted. […]

[1] = system: histamine in mouse epidermis and dermis; assay: Amount of histamine in skin of mast cell deficient and normal control mice after SDS (Sample Experiment 1-2); type: in vivo; details: Day 4, both mast cell deficient and normal control mice, SDS applied group vs solvent control
Method: Meanwhile, skin was collected from each of the mast cell deficient mice and normal control mice in the 10% SDS aqueous solution application group mentioned above at Day 4 while the mice were under anesthesia after perfusion with a phosphate buffer solution (PBS) using the cardiac blood circulation system (punched out with a biopsy punch in a circular shape of a diameter of 18 mm). The amounts of histamine in the collected skins were measured. In other words, each collected skin was immersed in PBS of 60° C. for 30 secs., then separated into the epidermis and the dermis. Subsequently, the amounts of histamine in the epidermis and the dermis were measured using the measurement kit (histamine enzyme immunoassay kit (Immunotech, Marseilles, France)). To measure the amount of histamine, tissues of both the epidermis and the dermis were pulverized to create tissue suspensions, which were subjected to centrifugation, then supernatants were collected to measure the amounts of histamine in the supernatants.

CCCCCCCCCCCCOS(=O)(=O)[O-].[Na+] [SDS, sodium dodecyl sulfate]
scratch bouts of mice (number in 60 mins.) after stimulating substance (ICR mice): increased significantly over time | amount of histamine in mouse dermis [1]: barely increased | amount of histamine in mouse epidermis [1]: significantly high
